Results on three compounds are retold here after ChEMBL document CHEMBL5393454, “Compounds inhibitors of mettl3” (2022).

The assay deals with N6-adenosine-methyltransferase catalytic subunit (Homo sapiens, UniProt Q86U44). The assay can be described thus: Inhibition of full length His-tagged METTL3 (unknown origin) co-expressed with full length FLAG-tagged METTL14 in baculovirus expression system preincubated using 5'P-uacacucgaucuggacuaaagcugcuc-3' as substrate and SAM as cosubstrate pre-incubated for 10 mins followed by addition of substrates and measured after 60 mins by RapidFire mass spectrometry (RF/MS) analysis.
Sequence of N6-adenosine-methyltransferase catalytic subunit (Q86U44 whole entry): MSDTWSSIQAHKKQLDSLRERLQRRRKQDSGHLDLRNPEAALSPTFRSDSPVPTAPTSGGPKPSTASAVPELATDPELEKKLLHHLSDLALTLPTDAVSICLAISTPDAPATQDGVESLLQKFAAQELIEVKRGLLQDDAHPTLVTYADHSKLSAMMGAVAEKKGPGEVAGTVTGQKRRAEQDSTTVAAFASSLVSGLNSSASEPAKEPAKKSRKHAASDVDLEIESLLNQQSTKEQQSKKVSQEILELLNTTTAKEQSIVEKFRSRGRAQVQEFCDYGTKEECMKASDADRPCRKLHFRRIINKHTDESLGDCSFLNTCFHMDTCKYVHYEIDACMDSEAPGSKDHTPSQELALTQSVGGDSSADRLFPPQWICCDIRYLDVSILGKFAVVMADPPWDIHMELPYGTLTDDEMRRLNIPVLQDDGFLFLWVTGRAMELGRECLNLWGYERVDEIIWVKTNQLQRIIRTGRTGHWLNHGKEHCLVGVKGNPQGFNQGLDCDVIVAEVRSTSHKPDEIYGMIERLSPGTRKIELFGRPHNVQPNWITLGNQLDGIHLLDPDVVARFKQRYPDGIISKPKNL
The term IC50 denotes the concentration that gives 50% inhibition. Read a high IC50 as weaker potency. For `Nc1ncnc2c1c(Br)cn2[C@@H]1O[C@H](/C=C/CCCNCC2CC(F)(F)C2)[C@@H](O)[C@H]1O`, the IC50 amounted to 0.0227 µM.
Turning to `Nc1ncnc2c1c(Br)cn2[C@@H]1O[C@H](/C=C/CCCNCC23CC(F)(C2)C3)[C@@H](O)[C@H]1O`, the IC50 is below 0.006 µM.
For `Nc1ncnc2c1c(Br)cn2[C@@H]1C[C@H](c2ccc3cc(CNCC45CC(F)(C4)C5)[nH]c3c2)[C@@H](O)[C@H]1O`, the IC50 is below 0.006 µM.
